# Reference: EP1151753B1, “PREVENTIVE AND THERAPEUTIC AGENTS FOR ARTERIOSCLEROSIS” (CCI CORPORATION, priority 1999, dated 2000)
# Assay: Lipoprotein analysis, WHHL rabbit model
# Format: in vivo, WHHL type rabbits
# Conditions: WHHL rabbits
# Description: 1. Animal used and feeding conditions In the test, female and male WHHL type rabbits (SPF: Kitayama Labels K.K.) which were eight weeks old at the time of arrival at the laboratory were subjected to quarantine and domestication and visually inspected as to the general condition and, after the absence of abnormality was confirmed, put to use. The body weights at the time of starting administration (at the age of nine weeks) were in the range of 1.5 - 1.9 kg in the case of male rabbits and in the range of 1.4 - 1.8 kg in the case of female rabbits. Throughout the entire duration of the test, the animals were raised as accommodated one each in hanger cages of aluminum installed on a stainless steel rack inside a clean feeding chamber set at a temperature in the range of 20 - 26°, a relative humidity in the range of 40 - 70%, a number of ventilations in the range of 10 - 20 turns/hour, and an illumination time within the range of 12 hours (7.00 - 19:00). They were fed on a commercially available radioactively sterilized solid feed (made by Oriental Kobo K.K. and sold under the product code of "RC4") and they were left freely drinking the tap water delivered by an automatic water supplying device. 2. Setting dosage and method of administration The dosage of TMG was set at 800 mg/head/day. The TMG was solved in reagent grade ethanol. The produced solution was sprayed on the feed and the wet feed was left drying in the air. A mixed feed was prepared so as to contain 800 mg of TMG per 100 g of the feed. The mixed feed was given to the rabbits every morning at a rate of 100 g/day per head for 27 weeks for the sake of attaining oral consumption of the TMG. The feed for the control group was obtained by spraying ethanol alone on a feed and air-drying the wet feed. It was given to the rabbits of the control group at a rate of 100 g/day per head for 27 weeks. 3. […] The blood was centrifuged to separate blood serum and the blood serum was analyzed for the items shown in Table 5 by the use of an automatic analyzer (made by Hitachi. Ltd. and sold under the product code of "736-20"). The body weight of each rabbit was measured at the rate of once a week throughout the entire duration of the administration.
# 5. […] The blood serum was ultracentrifuged by Hatch and Lees method (Hatch, F. T., and Lees, R. S. (1968) Advan, Lipid Res. 6, 1-68) using a centrifuge (the rotor; Beckman 70.1 Ti) made by Beckman and sold under the product code of "L-70") to separate low specific gravity lipoprotein (1.006 < d < 1.063), with the cholesterol amount of the LDL fraction determined by the cholesterol oxidase DASO method and the amount of HDL-cholesterol determined by subjecting the blood serum to the phospho-tungstic acid magnesium salt precipitation method. […]
# [1] = TMG 800 mg/head/day in feed, 26th week of administration, average ± SE
smiles,measurement,setting,value
"Cc1c(C)c2c(c(C)c1O)CCC(C)(C[C@H]1O[C@H](CO)[C@@H](O)[C@H](O)[C@H]1O)O2 (stereo partly drawn) [TMG, 2-(α-D-glucopyranosyl)methyl-2,5,7,8-tetramethyl chroman-6-ol]",activity of lowering the HDL-cholesterol,TMG 800 mg/head/day for 27 weeks,no activity
same,HDL-CHO,[1],5 ± 1 mg/dL
same,LDL-CHO,[1],746 ± 29 mg/dL
same,LDL-TMG,"amount of TMG in LDL fraction by HPLC, TMG 800 mg/head/day in feed, 26th week of administration",not detected
